From patent publication US9416181B2, “Compositions for cell culture and methods of using the same” (AbbVie Inc., priority 2013, dated 2016)

System: Cell Line 2 (CHO) expressing Antibody 2
Assay: Cell culture performance, Cell Line 2 shake flask culture
Type: cell-based, Chinese Hamster
Conditions: shaker
Description: Four different recombinant Chinese Hamster Ovary (CHO) cell lines expressing four different recombinant glycoproteins were evaluated in either shaker flask culture, or 3 L laboratory scale bioreactors. Cell Line 1 was genetically engineered to express Antibody 1, Cell Line 2 was genetically engineered to express Antibody 2, Cell Line 3 was genetically engineered to express dual variable domain immunoglobulin 1 (DVD1) and Cell Line 4 was genetically engineered to express dual variable domain immunoglobulin 2 (DVD2).
DVD1 and DVD2 were immunoglobulins with two variable domains as documented previously. See Wu et al. (2007). Antibody 1 and Antibody 2 were both IgG1 glycoproteins. All four cell lines were of CHO DUX-B11 origin based on a dhfr (dihydrofolate reductase) expression system and cultured in chemically defined basal medias (CDBM), and fed periodically with chemically-defined feed media (CDFM). All media utilized throughout all of the experiments were chemically-defined, free of animal-component, and protein-free. […]
Viable cell density (VCD) and cell viability values were measured through trypan blue exclusion via Cedex automated cell counters (Roche Applied Science, Indianapolis, Ind.), glucose and lactate values were measured with a ABL-805 (Radiometer Medical, Denmark) blood gas analyzer. […] Osmolality was measured as needed on a Multi-Osmette 2430 osmometer (Precision Systems, Natick, Mass.).
Protein A Affinity Chromatography-Antibody titers were measured from crude cell culture harvests on a Poros ATM (Life Technologies, Carlsbad, Calif.) affinity column using an HPLC system operating with a low pH, step elution gradient with detection at 280 nm. […]
To further evaluate the impact of EGCG on acidic region variants, Antibody 2 and dual variable domain immunoglobulin 1 (DVD1) were examined. Antibody 2 was evaluated in a set of shaker and lab-scale bioreactor experiments with two feed amounts (100% and 50%) as unsupplemented control conditions. […]

Structure (SMILES): O=C(O[C@@H]1Cc2c(O)cc(O)cc2O[C@@H]1c1cc(O)c(O)c(O)c1)c1cc(O)c(O)c(O)c1 [EGCG, epigallocatechin gallate]
- impact on cell culture performance (cell growth, viability, titer) (0.05 and 0.1 g/L in feed): no negative impact on cell culture performance
- fold of the average titer of the unsupplemented control conditions (0.1 g/L in 100% feed): 1.22 fold
- fold of the average titer of the unsupplemented control conditions (equivalent of 0.1 g/L in 50% feed): 1.11 fold
